# Measured values reported in patent US5633229A, “Method of using prophenins-antibiotic peptides” (University of California, priority 1995, dated 1997).
# Where no end group is shown, it is not given here.
# Columns and labels:
# [1] = test system: L. monocytogenes, Strain EGD; assay: radial diffusion assay in agarose gels, L. monocytogenes; assay type: cell-based; details: Target L. monocytogenes
# Procedure: (§1) Aliquots (66 μl ) of each fraction were dried by vacuum centrifugation, and resuspended in approximately 6.6 μl of 0.01% acetic acid. Five μl samples of this concentrate were tested for antimicrobial activity against E. coli ML-35, L. monocytogenes, Strain EGD and C. albicans, strain 820 by radial diffusion and gel overlay techniques (Lehrer, R. I. et al. J Immunol Meth (1991) 137:167-173). Active fractions were further examined by acid-urea PAGE and SDS-PAGE. Prophenins emerged from the P10 column in fractions 38-43 (39.6 ml total volume), which contained a total of 18 mg protein BCA analysis.
# (§2) The radial diffusion assay in agarose gels as described above was also used to test the activity of the purified prophenins. Samples of 5 μL each were added to 3 mm wells in thin gels composed of 10 mM sodium phosphate, 30 mg/ml trypticase soy broth powder in 1% agarose and containing approximately 4×10^5 CFU/ml of mid-log phase organisms. After allowing 3 hours for the samples to diffuse into the underlayer gel, a nutrient-rich overlay gel was poured and the plates were incubated for 24 hours at 37° C. to allow surviving organisms to form microcolonies. The diameters of the clear zones were measured and expressed in "units" (10 units=1 mm) as described previously.
# C. albicans, strain 820 = assay: radial diffusion assay in agarose gels, C. albicans; assay type: cell-based; details: for minimal microbicidal concentration: Target C. albicans; for inhibitory activity against C. albicans (FIG. 4c): result in words
# Procedure: as §1, §2
# E. coli ML-35 = assay: radial diffusion assay in agarose gels, E. coli; assay type: cell-based; details: for minimal microbicidal concentration: Target E. coli
# Procedure: as §1, §2
# [2] = test system: lipid polysaccharide (LPS) of the Gram-negative bacterium E. coli strain 0.55B5; assay: Limulus amebocyte lysate (LAL) test for endotoxin binding; assay type: biochemical; set-up: key to LPS-induced gel formation of E-TOXATE (Table 3): ++: a solid gel (no inhibition); +: increased viscosity without solid gel formation (partial inhibition); 0: gelation was absent (complete inhibition); details: for LPS-induced gel formation of E-TOXATE (Table 3): 60 minutes at 37° C.
# Procedure: The prophenins of the invention were tested for their ability to bind the lipid polysaccharide (LPS) of the Gram-negative bacterium E. coli strain 0.55B5. The assay was the Limulus amebocyte lysate (LAL) test for endotoxins conducted in the presence and absence of the test compounds. The test was conducted using the procedure described in Sigma Technical Bulletin No. 210 as revised in Dec. 1992 and published by Sigma Chemical Company, St. Louis, Mo.
# The LAL test is based on the ability of LPS to effect gelation in the commercial reagent E-TOXATE™ which is prepared from the lysate of circulating amebocytes of the Horseshoe Crab Limulus polyphemus. As described in the technical bulletin, when exposed to minute quantities of LPS, the lysate increases in opacity as well as viscosity and may gel or clot depending on the concentration of endotoxin. The technical bulletin goes on to speculate that the mechanism appears analogous to the clotting of mammalian blood and involves the steps of activation of a trypsin-like preclotting enzymes by the LPS in the presence of calcium ion, followed by enzymic modifications of a "coagulogen" by proteolysis to produce a clottable protein. These steps are believed tied to the biologically active or "pyrogenic" portion of the molecule. It has been shown previously that detoxified LPS (or endotoxin) gives a negative LAL test.
# In the assay, the amounts of prophenin-1 and polymyxin B (78% free polymyxin, Sigma) were preincubated in a final volume of 0.2 ml and the test mixtures contained LPS at a final concentration of 0.05 endotoxin unit/ml and E-TOXATE™ at the same concentration. The test compounds were incubated together with the LPS for 15 minutes before the E-TOXATE™ was added to a final volume (after E-TOXATE™ addition) of 0.2 ml. The tubes were then incubated for 60 minutes at 37° C. and examined for the formation of a gel.
substance,measurement,setting,value
"PG-3: protegrin-3 (PG3), control (RGGGLCYCRRRFCVCVGR; ends and bridges not checked; cysteine pairing not given here; UniProt P32196 131-148, looked up)",minimal microbicidal concentration,[1],9.0 µg/mL
same,minimal microbicidal concentration,"C. albicans, strain 820",6.9 µg/mL
same,inhibitory activity against C. albicans (FIG. 4c),"C. albicans, strain 820",successful antifungals
same,minimal microbicidal concentration,E. coli ML-35,8.6 µg/mL
same,inhibitory activity against E. coli ML-35 (FIG. 4a),E. coli ML-35; result in words,more inhibitory than HNP-1
"HNP-1: human defensin (HNP-1), control",inhibitory activity against C. albicans (FIG. 4c),"C. albicans, strain 820",substantially noninhibitory
Polymyxin B,concentration giving complete inhibition of gelation,"[2]; LAL test, LPS 0.05 endotoxin unit/ml",5 µg/mL
same,"concentration giving complete inhibition of gelation, molar","[2]; LAL test, converted from μg/ml",≈ 4.2 μM
same,LPS-induced gel formation of E-TOXATE (Table 3),"[2]; peptide 0.16 μg/ml, LPS 0.05 endotoxin unit/ml",++
same,LPS-induced gel formation of E-TOXATE (Table 3),"[2]; peptide 0.31 μg/ml, LPS 0.05 endotoxin unit/ml",++
same,LPS-induced gel formation of E-TOXATE (Table 3),"[2]; peptide 0.63 μg/ml, LPS 0.05 endotoxin unit/ml",++
same,LPS-induced gel formation of E-TOXATE (Table 3),"[2]; peptide 1.25 μg/ml, LPS 0.05 endotoxin unit/ml",++
same,LPS-induced gel formation of E-TOXATE (Table 3),"[2]; peptide 2.5 μg/ml, LPS 0.05 endotoxin unit/ml",+
same,LPS-induced gel formation of E-TOXATE (Table 3),"[2]; peptide 5.0 μg/ml, LPS 0.05 endotoxin unit/ml",0
same,LPS-induced gel formation of E-TOXATE (Table 3),"[2]; peptide 10.0 μg/ml, LPS 0.05 endotoxin unit/ml",0
"HNP-2: column head of Table 2; probably the human defensin control named HNP-1 in the text (CYCRIPACIAGERRYGTCIYQGRLWAFCC; ends and bridges not checked; cysteine pairing not given here; UniProt P59665 66-94, looked up)",minimal microbicidal concentration,[1],12.0 µg/mL
same,minimal microbicidal concentration,"C. albicans, strain 820",> 150 µg/mL
same,minimal microbicidal concentration,E. coli ML-35,80.0 µg/mL
